Patent publication US9617310B2 (priority 2013, dated 2017)

Tests used:
NS3 genotype 3a protease = target: T1, NS3 genotype 3a protease (UniProt Q81258); assay: Ki determination, NS3 protease genotype 3a (fluorogenic depsipeptide substrate); type: biochemical, hepatitis C virus; conditions: NS3 protease domain genotype 3a, NS4A peptide
T1 construct: Purified NS3 protease domain (amino acids 1-181) of the genotype 1b and 3a virus were generated as above; fused on or other part: N-terminal hexahistidine tag with an rTEV protease cleavage site (vector p28-N6H-Tev-NS3(181)3)
T1 sequence (Q81258 1033-1663): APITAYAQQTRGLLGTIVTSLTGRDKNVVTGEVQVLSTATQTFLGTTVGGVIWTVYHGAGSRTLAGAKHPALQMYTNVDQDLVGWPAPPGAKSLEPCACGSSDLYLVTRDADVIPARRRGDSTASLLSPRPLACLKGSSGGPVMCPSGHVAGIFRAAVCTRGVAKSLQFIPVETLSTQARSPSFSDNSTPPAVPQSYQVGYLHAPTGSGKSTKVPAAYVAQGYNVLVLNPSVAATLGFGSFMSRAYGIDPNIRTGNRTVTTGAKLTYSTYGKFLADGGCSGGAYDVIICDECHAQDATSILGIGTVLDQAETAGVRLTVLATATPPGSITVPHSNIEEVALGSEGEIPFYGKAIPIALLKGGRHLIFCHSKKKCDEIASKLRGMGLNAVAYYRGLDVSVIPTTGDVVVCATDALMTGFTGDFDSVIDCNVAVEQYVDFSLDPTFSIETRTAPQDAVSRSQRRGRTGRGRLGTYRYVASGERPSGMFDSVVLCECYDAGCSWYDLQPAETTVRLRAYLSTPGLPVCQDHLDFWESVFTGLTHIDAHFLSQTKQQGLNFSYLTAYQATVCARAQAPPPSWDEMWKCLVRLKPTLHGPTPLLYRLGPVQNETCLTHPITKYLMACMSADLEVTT
Excerpt: Ki Determination for Genotypes 1b and 3a NS3 Protease.
Purified NS3 protease domain (amino acids 1-181) of the genotype 1b and 3a virus were generated as above. The internally quenched fluorogenic depsipeptide substrate Ac-DED(Edans)-EEAbuψ[COO]ASK(Dabcyl)-NH2 and a synthetic peptide containing the hydrophobic core residues of the NS4A protein cofactor ([…]; NS4A peptide) were obtained from Anaspec, Inc. (San Jose, Calif.). Other chemicals and biochemicals were of reagent grade or better and were purchased from standard suppliers.
Reactions were run at room temperature in buffer consisting of 50 mM HEPES, 40% glycerol, 0.05% Triton X-100, 10 mM DTT, and 10% DMSO. The final assay solutions contained 50 pM NS3 genotype 1b protease or 200 pM genotype 3a protease, 20 μM NS4A peptide, and 4 μM substrate (genotype 1b) or 2 μM substrate (genotype 3a). Inhibitor concentrations varied from 100 nM to 5 pM in 3-fold dilutions, and no-inhibitor controls were included.
Compound dilutions were made in DMSO at 20× final concentration. Reaction mixtures were prepared in 96-well assay plates. A solution of enzyme and NS4A peptide in assay buffer (25 μL volume with both reagents at 4× final concentration) was mixed with 45 μL assay buffer and 5 μL of either inhibitor or DMSO, and pre-incubated at room temperature for 1 hour. The reaction was started by addition of 25 μL substrate solution at 4× final concentration. Plates were mixed vigorously for 5-10 seconds and reactions were allowed to proceed for 90 minutes. Fluorescence was measured every 30 s between 90 and 120 minutes reaction time using a Tecan InfiniTe M1000 or PerkinElmer Envision multimode plate reader with an excitation wavelength of 340 nm and an emission wavelength of 490 nm.
Rates were calculated from the progress curves at steady state, in the time frame of 90-120 minutes after addition of substrate. To determine the Ki, rates were plotted as a function of inhibitor concentration, and the data were fit with equation 1 (Morrison, J. F., Biochimica et Biophysica Acta 1969, 185, 269-286) to calculate Ki^app using GraphPad Prism 5. Active fraction of enzyme was determined by active site titration with known potent inhibitors. Ki was calculated from Ki^app/(1+[[S]/Km]).

[1] = tested on: genotype 1a (H77) wild-type transient HCV replicon in Huh-7-derived cells; assay: Transient-transfected HCV replicon, genotype 1a wild type; type: cell-based; conditions: Hepatitis C virus; transient-transfected replicon genotype 1a wild type, 72 h; read-out: EC50 1A WT
[2] = tested on: genotype 1b wild-type transient HCV replicon in Huh-7-derived cells; assay: Transient-transfected HCV replicon, genotype 1b wild type; type: cell-based; conditions: Hepatitis C virus; transient-transfected replicon genotype 1b wild type, 72 h; read-out: EC50 1B WT

COc1ccc2nc3c(nc2c1)O[C@@H]1C[C@@H](C(=O)N[C@]2(C(=O)NS(=O)(=O)C4(C)CC4)C[C@H]2C(F)F)N(C1)C(=O)[C@H](C(C)(C)C)NC(=O)O[C@@H]1C[C@@H]2C[C@@H]2[C@H]1CCCCC3(F)F [Example 10, (1aS,2aR,6S,9S,11R,23aR,23bS)-6-tert-butyl-N-[(1R,2R)-2-(difluoromethyl)-1-{[(1-methylcyclopropyl)sulfonyl]carbamoyl}cyclopropyl]-19,19-difluoro-15-methoxy-4,7-dioxo-1a,2,2a,4,5,6,7,10,11,19,20,21,22,23,23a,23b-hexadecahydro-1H,9H-8,11-methanocyclopropa [4′,5′]cyclopenta[1′,2′:18,19][1,10,3,6]dioxadiazacyclononadecino[11,12-b]quinoxaline-9-carboxamide]
Ki (NS3 genotype 3a protease): 20 pM | EC50 [1]: 1400 pM | EC50 [2]: 750 pM

CC(C)(C)[C@@H]1NC(=O)O[C@@H]2C[C@@H]3C[C@@H]3[C@H]2CCCCCc2nc3ccc(F)cc3nc2O[C@@H]2C[C@@H](C(=O)N[C@]3(C(=O)NS(=O)(=O)C4(C)CC4)C[C@H]3C(F)F)N(C2)C1=O [Example 11, (1aS,2aR,6S,9S,11R,23aR,23bS)-6-tert-butyl-N-[(1R,2R)-2-(difluoromethyl)-1-{[(1-methylcyclopropyl)sulfonyl]carbamoyl}cyclopropyl]-15-fluoro-4,7-dioxo-1a,2,2a,4,5,6,7,10,11,19,20,21,22,23,23a,23b-hexadecahydro-1H,9H-8,11-methanocyclopropa[4′,5′]cyclopenta[1′,2′:18,19][1,10,3,6]dioxadiazacyclononadecino[11,12-b]quinoxaline-9-carboxamide]
Ki (NS3 genotype 3a protease): 90 pM | EC50 [1]: 1400 pM | EC50 [2]: 780 pM

CC(C)(C)[C@@H]1NC(=O)O[C@@H]2C[C@@H]3C[C@@H]3[C@H]2CCCCCc2nc3ccc(F)cc3nc2O[C@@H]2C[C@@H](C(=O)N[C@]3(C(=O)NS(=O)(=O)C4CC4)C[C@H]3C(F)F)N(C2)C1=O [Example 12, (1aS,2aR,6S,9S,11R,23aR,23bS)-6-tert-butyl-N-[(1R,2R)-1-[(cyclopropylsulfonyl)carbamoyl]-2-(difluoromethyl)cyclopropyl]-15-fluoro-4,7-dioxo-1a,2,2a,4,5,6,7,10,11,19,20,21,22,23,23a,23b-hexadecahydro-1H,9H-8,11-methanocyclopropa[4′,5′]cyclopenta[1′,2′:18,19][1,10,3,6]dioxadiazacyclononadecino[11,12-b]quinoxaline-9-carboxamide]
Ki (NS3 genotype 3a protease): 90 pM | EC50 [1]: 800 pM | EC50 [2]: 640 pM

CC(C)(C)[C@@H]1NC(=O)O[C@@H]2C[C@@H]3C[C@@H]3[C@H]2CC/C=C/C(F)(F)c2nc3ccc(C#N)cc3nc2O[C@@H]2C[C@@H](C(=O)N[C@]3(C(=O)NS(=O)(=O)C4(C)CC4)C[C@H]3C(F)F)N(C2)C1=O [Example 13, (1aS,2aR,6S,9S,11R,20E,23aR,23bS)-6-tert-butyl-15-cyano-N-[(1R,2R)-2-(difluoromethyl)-1-{[(1-methylcyclopropyl)sulfonyl]carbamoyl}cyclopropyl]-19,19-difluoro-4,7-dioxo-1a,2,2a,4,5,6,7,10,11,19,22,23,23a,23b-tetradecahydro-1H,9H-8,11-methanocyclopropa[4′,5′]cyclopenta[1′,2′18,19][1,10,3,6]dioxadiazacyclononadecino[11,12-b]quinoxaline-9-carboxamide]
Ki (NS3 genotype 3a protease): 30 pM | EC50 [1]: 2800 pM | EC50 [2]: 990 pM

CC(C)(C)[C@@H]1NC(=O)O[C@@H]2C[C@@H]3C[C@@H]3[C@H]2CCCCC(F)(F)c2nc3ccc(C#N)cc3nc2O[C@@H]2C[C@@H](C(=O)N[C@]3(C(=O)NS(=O)(=O)C4(C)CC4)C[C@H]3C(F)F)N(C2)C1=O [Example 14, (1aS,2aR,6S,9S,11R,23aR,23bS)-6-tert-butyl-15-cyano-N-[(1R,2R)-2-(difluoromethyl)-1-{[(1-methylcyclopropyl)sulfonyl]carbamoyl}cyclopropyl]-19,19-difluoro-4,7-dioxo-1a,2,2a,4,5,6,7,10,11,19,20,21,22,23,23a,23b-hexadecahydro-1H,9H-8,11-methanocyclopropa[4′,5′]cyclopenta [1′,2′:18,19][1,10,3,6]dioxadiazacyclononadecino[11,12-b]quinoxaline-9-carboxamide]
Ki (NS3 genotype 3a protease): 10 pM | EC50 [1]: 900 pM | EC50 [2]: 550 pM

CC(C)(C)[C@@H]1NC(=O)O[C@@H]2C[C@@H]3C[C@@H]3[C@H]2CCCCC(F)(F)c2nc3ccc(OC(F)F)cc3nc2O[C@@H]2C[C@@H](C(=O)N[C@]3(C(=O)NS(=O)(=O)C4CC4)C[C@H]3C(F)F)N(C2)C1=O [Example 16, (1aS,2aR,6S,9S,11R,23aR,23bS)-6-tert-butyl-N-[(1R,2R)-1-[(cyclopropylsulfonyl)carbamoyl]-2-(difluoromethyl)cyclopropyl]-15-(difluoromethoxy)-19,19-difluoro-4,7-dioxo-1a,2,2a,4,5,6,7,10,11,19,20,21,22,23,23a,23b-hexadecahydro-1H,9H-8,11-methanocyclopropa[4′,5′]cyclopenta [1′,2′:18,19][1,10,3,6]dioxadiazacyclononadecino[11,12-b]quinoxaline-9-carboxamide]
Ki (NS3 genotype 3a protease): 130 pM | EC50 [1]: 1800 pM | EC50 [2]: 1600 pM

CC(C)(C)[C@@H]1NC(=O)O[C@@H]2C[C@@H]3C[C@@H]3[C@H]2CCCCC(F)(F)c2nc3ccccc3nc2O[C@@H]2C[C@@H](C(=O)N[C@]3(C(=O)NS(=O)(=O)C4(C)CC4)C[C@H]3C(F)F)N(C2)C1=O [Example 17]
Ki (NS3 genotype 3a protease): 20 pM | EC50 [1]: 3300 pM | EC50 [2]: 1300 pM

CC(C)(C)[C@@H]1NC(=O)O[C@@H]2C[C@@H]3C[C@@H]3[C@H]2CCCCC(F)(F)c2nc3ccccc3nc2O[C@@H]2C[C@@H](C(=O)N[C@]3(C(=O)NS(=O)(=O)C4CC4)C[C@H]3C(F)F)N(C2)C1=O [Example 18]
Ki (NS3 genotype 3a protease): 20 pM | EC50 [1]: 3600 pM | EC50 [2]: 1600 pM

CC(C)(C)[C@@H]1NC(=O)O[C@@H]2C[C@@H]3C[C@@H]3[C@H]2CCCCCc2nc3ccc(Cl)cc3nc2O[C@@H]2C[C@@H](C(=O)N[C@]3(C(=O)NS(=O)(=O)C4CC4)C[C@H]3C(F)F)N(C2)C1=O [Example 19, (1aS,2aR,6S,9S,11R,23aR,23bS)-6-tert-butyl-15-chloro-N-[(1R,2R)-1-[(cyclopropylsulfonyl)carbamoyl]-2-(difluoromethyl)cyclopropyl]-4,7-dioxo-1a,2,2a,4,5,6,7,10,11,19,20,21,22,23,23a, 23b-hexadecahydro-1H,9H-8,11-methanocyclopropa[4′,5′]cyclopenta[1′,2′:18,19][1,10,3,6]dioxadiazacyclononadecino[11,12-b]quinoxaline-9-carboxamide]
Ki (NS3 genotype 3a protease): 60 pM | EC50 [1]: 1300 pM | EC50 [2]: 1100 pM
